As usually defined, the IC50 is the point on the concentration scale where inhibition reaches its midpoint.

The source of these data is patent US20070254881A1, “Pyrazole Derivative” (DAIICHI PHARMACEUTICAL CO., LTD., priority 2004, published 2007).

Experiment [1] addresses T1, Cyclooxygenase-2 (COX-2) (Homo sapiens, UniProt P35354).
T1 construct: purchased Cayman Chemical Company 560121
T1 sequence (P35354 18-604): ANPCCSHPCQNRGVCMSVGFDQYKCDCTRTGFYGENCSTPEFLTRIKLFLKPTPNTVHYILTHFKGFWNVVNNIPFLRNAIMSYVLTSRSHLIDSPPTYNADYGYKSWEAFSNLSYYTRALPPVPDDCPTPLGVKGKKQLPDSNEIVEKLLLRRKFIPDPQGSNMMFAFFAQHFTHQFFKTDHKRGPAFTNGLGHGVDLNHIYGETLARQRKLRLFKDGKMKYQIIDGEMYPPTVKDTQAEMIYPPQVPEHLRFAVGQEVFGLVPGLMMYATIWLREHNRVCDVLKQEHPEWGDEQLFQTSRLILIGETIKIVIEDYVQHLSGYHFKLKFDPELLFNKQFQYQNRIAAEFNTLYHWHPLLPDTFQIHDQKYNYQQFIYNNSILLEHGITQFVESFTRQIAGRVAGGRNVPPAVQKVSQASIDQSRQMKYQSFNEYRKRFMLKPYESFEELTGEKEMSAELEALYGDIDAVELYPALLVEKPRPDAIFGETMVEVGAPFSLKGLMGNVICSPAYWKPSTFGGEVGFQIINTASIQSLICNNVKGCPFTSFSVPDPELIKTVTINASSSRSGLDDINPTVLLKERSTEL
As to the kind of experiment: COX-2 inhibition, COX Inhibitor Screening Assay Kit (PGF2α production, ELISA). The class given is biochemical. Particulars: compound 300 μM. From the text:
(§1) For the measurement of the inhibitory activity of the compounds obtained in the Examples against COX-1 and COX-2, a COX Inhibitor Screening Assay Kit manufactured by Cayman Chemical Company (Catalog Nos. 560101 and 560121) was used.
(§2) Before starting the measurement, a reaction buffer, heme, arachidonic acid, SnCl2, EIA buffer, a washing buffer, prostaglandin (PG)-screening EIA standard solution, PG-screening acetylcholinesterase (AchE), a tracer […], and PG-screening EIA antiserum were provided.
A reaction solution containing a compound of the Examples (50 μM) and COX-1, or a reaction solution containing a compound of the Examples (300 μM) and COX-2 was allowed to stand at 37° C. for 10 minutes, then 10 μl of arachidonic acid was added thereto, and the resultant mixture was allowed to stand at 37° C. for 2 minutes. […]
50 μl of antiserum (rabbit anti-PGF2α antibody) was added to each well of a 96-well plate coated with mouse anti-rabbit IgG. […] The plate was kept in the dark room for 60 minutes, and then, absorbance at 405 nm was measured.
A standard curve was produced using a PG-screening EIA standard solution, and the amount of PGF2α production was determined from the absorbance obtained as described above. […]

Experiment [2] has as its system collagen-induced platelet aggregation. As to the kind of experiment: Platelet aggregation suppressing effect (collagen-induced aggregation in platelet rich plasma). The class given is cell-based. Particulars: human PRP, 37° C., collagen as inducer, read-out: Inhibitory effect of collagen-induced platelet aggregation IC50. The protocol:
Human blood was collected using 3.13% sodium citrate in a volume 1/10 of the blood volume, as an anticoagulant. The collected blood was centrifuged at 180 g for 10 minutes to separate platelet rich plasma (PRP) from the blood. After collecting the PRP fraction in the upper layer, the lower layer was further centrifuged at 1600 g for 10 minutes to fractionate platelet poor plasma (PPP) in the upper layer. One μl of a solution of a compound obtained in the Examples was added to 200 μl of PRP, and the mixture was allowed to stand at 37° C. for 2 minutes. Subsequently, 2 μl of collagen was added thereto, so as to induce platelet aggregation. The platelet aggregation rate was measured using PAM-12C(SSR Engineering, Inc.).

Experiment [3] has as its target T2, Cyclooxygenase-1 (COX-1) (Ovis aries, UniProt P05979).
T2 construct: purchased Cayman Chemical Company 560101
T2 sequence (P05979 25-600): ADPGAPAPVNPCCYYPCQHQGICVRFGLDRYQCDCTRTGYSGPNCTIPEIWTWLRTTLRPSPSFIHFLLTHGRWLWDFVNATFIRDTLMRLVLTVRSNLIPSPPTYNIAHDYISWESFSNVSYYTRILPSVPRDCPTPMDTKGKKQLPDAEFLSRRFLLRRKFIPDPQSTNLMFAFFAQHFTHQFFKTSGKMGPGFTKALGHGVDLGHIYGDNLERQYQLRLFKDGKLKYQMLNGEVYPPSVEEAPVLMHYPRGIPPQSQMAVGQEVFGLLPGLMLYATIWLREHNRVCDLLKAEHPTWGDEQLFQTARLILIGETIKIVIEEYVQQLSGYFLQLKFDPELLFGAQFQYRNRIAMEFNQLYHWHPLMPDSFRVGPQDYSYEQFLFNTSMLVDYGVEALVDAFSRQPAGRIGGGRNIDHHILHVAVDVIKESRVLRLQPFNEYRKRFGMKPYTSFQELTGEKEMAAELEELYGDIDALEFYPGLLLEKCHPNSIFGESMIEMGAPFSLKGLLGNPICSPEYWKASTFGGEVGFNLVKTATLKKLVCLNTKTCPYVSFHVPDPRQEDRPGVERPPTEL
As to the kind of experiment: COX-1 inhibition, COX Inhibitor Screening Assay Kit (PGF2α production, ELISA). The note with it: compound 50 μM. The experiment is classed as biochemical.
Excerpt: as §1, §2
A reaction solution containing a compound of the Examples (50 μM) and COX-1, or a reaction solution containing a compound of the Examples (300 μM) and COX-2 was allowed to stand at 37° C. for 10 minutes, then 10 μl of arachidonic acid was added thereto, and the resultant mixture was allowed to stand at 37° C. for 2 minutes. After the reaction, 50 μl of 1 N hydrochloric acid was added to the reaction mixture to stop the reaction, and 100 μl of a SnCl2 solution was added thereto. The resultant mixture was allowed to stand at room temperature for 5 minutes.
50 μl of antiserum (rabbit anti-PGF2α antibody) was added to each well of a 96-well plate coated with mouse anti-rabbit IgG. Then, 50 μl of a solution prepared by diluting the reaction solution for PGF2α production to 2000-folds, and 50 μl of an AchE tracer were added sequentially to the wells, and the plate was kept at room temperature for 18 hours. Each well washed 5 times with the washing buffer to remove excessive AchE tracer, and then 200 μl of Ellman reagent was added to each well. The plate was kept in the dark room for 60 minutes, and then, absorbance at 405 nm was measured.
A standard curve was produced using a PG-screening EIA standard solution, and the amount of PGF2α production was determined from the absorbance obtained as described above. The COX-1 inhibition rate at 50 μM of the compound of the Examples, and the COX-2 inhibition rate at 300 μM of the compound of the Examples were calculated.
For orientation: ELISA stands for enzyme-linked immunosorbent assay.

For experiment [4], the system named is collagen-induced platelet aggregation. Particulars: background art, cited from earlier work.

Read-outs that look alike come from different tables or passages of the source.

Take `COc1ccc(-n2nc(C(=O)N3CCC(OC)CC3)cc2-c2cn(C)cn2)cn1` [Example 73, 1-[1-(6-Methoxy-3-pyridyl)-5-(1-methyl-1H-imidazol-4-yl)-1H-pyrazole-3-carbonyl]-4-methoxypiperidine]: the “COX-2 inhibitory action at 300 μM (% inhibition)” value in experiment [1] turned out to be 15.5 % inhibition. For the same compound, in experiment [2], the IC50 is 0.15 µM. The “COX-1 inhibitory action at 50 μM (% inhibition)” value in experiment [3] came to 5.9 % inhibition.
In the same order, the values of `COc1ccc(-n2nc(C(=O)N3CCOCC3)cc2-c2cnn(C)c2)cn1` [Example 115, 4-[1-(6-Methoxy-3-pyridyl)-5-(1-methyl-1H-pyrazol-4-yl)-1H-pyrazole-3-carbonyl]morpholine] are 23.4 % inhibition, 0.11 µM and −21.2 % inhibition.
For the compound `CS(=O)(=O)c1ccc(-c2cc(C#N)nn2-c2ccc(F)cc2)cc1` [compound (A)], in experiment [4] (read-out: IC50 value against collagen-induced platelet aggregation), the IC50 is 5.3 µM.
Consider `COc1ccc(-n2nc(C(=O)N3CCN(C)C(=O)C3)cc2-c2cscn2)cn1` [Example 126, 1-[1-(6-Methoxy-3-pyridyl)-5-(thiazol-4-yl)-1H-pyrazole-3-carbonyl]-4-methyl-3-oxopiperazine], for which the IC50 in experiment [2] is 0.36 µM. The “COX-1 inhibitory action at 50 μM (% inhibition)” value in experiment [3] is on record as −6.4 % inhibition.
The like results for `Cc1ccc(-n2nc(C(=O)N3CCOCC3)cc2-c2ccn(C)c2)cn1` [Example 16, 4-[1-(6-Methyl-3-pyridyl)-5-(1-methyl-1H-pyrrol-3-yl)-1H-pyrazole-3-carbonyl]morpholine] were, in that order, 0.12 µM and −5.2 % inhibition.
For the compound `COc1ccc(-c2cc(C(F)F)nn2-c2ccc(S(N)(=O)=O)cc2)cc1F` [compound (B)], the “platelet aggregation inhibitory action compared with inhibitory activity against COX-2” value in experiment [4] is recorded as “not as strong as the inhibitory activity of the compound against COX-2”.
